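Method: 48-hour compound exposure of cells in 96-well plates, five concentrations, linear interpolation of endpoints. TGI is the concentration that stops growth completely.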
Columns and labels:
Experiment in all cases: inhibition of tumour cell growth, NCI panel, 48 h
HCT-116 colon = tested on: HCT-116 colon
KM12 colon = tested on: KM12 colon
SK-OV-3 ovarian = tested on: SK-OV-3 ovarian
ACHN renal = tested on: ACHN renal
K-562 leukemia = tested on: K-562 leukemia
HCC-2998 colon = tested on: HCC-2998 colon
SF-268 CNS = tested on: SF-268 CNS
HOP-62 NSCLC = tested on: HOP-62 NSCLC
HT29 colon = tested on: HT29 colon
SNB-19 CNS = tested on: SNB-19 CNS
IGROV1 ovarian = tested on: IGROV1 ovarian
BT-549 breast = tested on: BT-549 breast
MDA-N = tested on: MDA-N

SMILES | TGI (HCT-116 colon) [µM] | TGI (KM12 colon) [µM] | TGI (SK-OV-3 ovarian) [µM] | TGI (ACHN renal) [µM] | TGI (K-562 leukemia) [µM] | TGI (HCC-2998 colon) [µM] | TGI (SF-268 CNS) [µM] | TGI (HOP-62 NSCLC) [µM] | TGI (HT29 colon) [µM] | TGI (SNB-19 CNS) [µM] | TGI (IGROV1 ovarian) [µM] | TGI (BT-549 breast) [µM] | TGI (MDA-N) [µM]
Cc1cc2oc(=O)[nH]c(=S)c2c(C)c1C | > 100 | > 100 | > 100 | > 100 | > 100 | > 100 | > 100 | > 100 | > 100 | > 100 | > 100 | – | –
COc1ccc(C2C(Cl)C(=O)N2NC(=O)Cc2ccccc2)cc1 (stereo not drawn) | > 100 | > 100 | > 100 | > 100 | > 100 | > 100 | > 100 | > 100 | > 100 | > 100 | > 100 | – | –
CC1(O)/C(=N/O)CC2CC1C2(C)C (stereo not drawn) | – | > 100 | – | > 100 | > 100 | > 100 | > 100 | – | > 100 | > 100 | > 100 | > 100 | > 100
CCOC(=O)CC[C@@H](NC(=O)c1ccc(N[C@@H]2c3cc4c(cc3C(c3cc(OC)c(O)c(OC)c3)C3C(=O)OC[C@@H]32)OCO4)cc1)C(=O)OCC (stereo partly drawn) | – | – | 0.0656 | 0.0379 | > 10 | 0.318 | 0.0686 | 0.0424 | 0.751 | 0.116 | 0.32 | – | –
COC(=O)CC1C(=O)OCc2c1cc1n(c2=O)Cc2c-1nc1ccccc1c2OC (stereo not drawn) | > 100 | – | > 100 | > 100 | > 100 | > 100 | > 100 | > 100 | > 100 | > 100 | > 100 | – | –
CC(C)(C)N1NC1C1NN1C(C)(C)C (stereo not drawn) | > 100 | > 100 | > 100 | > 100 | > 100 | > 100 | > 100 | > 100 | > 100 | > 100 | > 100 | – | > 100
CC1N(C)C(=O)OC12CCN(CCCC(=O)c1ccc(F)cc1)CC2 (stereo not drawn) | > 100 | > 100 | > 100 | > 100 | > 100 | – | > 100 | > 100 | > 100 | > 100 | > 100 | > 100 | > 100
O=C1CCC2SC1CCC2=O | > 100 | > 100 | > 100 | > 100 | > 100 | > 100 | > 100 | > 100 | > 100 | > 100 | > 100 | > 100 | –
COC(=O)c1c(C(=O)OC)c2cc(C(=O)c3ccccc3)ccn2c1Cl | > 100 | 72.8 | – | > 100 | > 100 | > 100 | > 100 | > 100 | > 100 | > 100 | > 100 | – | –
S=C(Nc1cccc(Cl)c1)Nc1ccccn1 | > 100 | > 100 | > 100 | – | > 100 | – | > 100 | > 100 | > 100 | > 100 | > 100 | > 100 | –
COC(=O)C1(O)c2ccccc2N=C2C(=O)c3ccccc3N21 (stereo not drawn) | > 100 | > 100 | – | > 100 | > 100 | > 100 | > 100 | > 100 | > 100 | – | > 100 | > 100 | 41.8
Cc1cc(Cl)ccc1N=NC(=O)NNc1ccc(Cl)cc1C | 26.7 | – | – | 40.3 | 63 | 24.1 | 37.5 | 23.9 | 36.4 | 48.9 | 20.7 | 32.2 | 30.3
CSc1cc(Cl)c(C)cc1S(=O)(=O)NC(=O)NNc1ccc(F)c(Cl)c1 | > 100 | > 100 | > 100 | > 100 | > 100 | > 100 | > 100 | > 100 | > 100 | > 100 | > 100 | – | > 100
C=C1C(=O)C23CC1C[C@H](OC(C)=O)C2C1(C)C(OC(C)=O)C[C@H](O)C(C)(C)[C@H]1C(O)[C@@H]3OC(C)=O (stereo partly drawn) | 16.2 | > 54.5 | 56.5 | 24.3 | 10.9 | 36.9 | 28.5 | 33.8 | 30 | 44.3 | 30.6 | 13.5 | –
CC1[C@@H](OCc2ccccc2)COC(=O)N1Cc1ccccc1 (stereo partly drawn) | > 100 | > 100 | > 100 | > 100 | > 100 | – | > 100 | > 100 | > 100 | > 100 | > 100 | – | > 100
CCOC(=O)c1c(NC(=O)Nc2ccccc2)c(C(N)=O)c2n1CCCCC2 | > 100 | > 100 | > 100 | > 100 | > 100 | > 100 | > 100 | > 100 | > 100 | > 100 | > 100 | > 100 | –
CCN(CC)Cc1cc(Nc2c3ccccc3nc3c2[nH]c2ccccc23)ccc1O | 1.91 | 4.66 | 6.83 | 3.53 | > 100 | – | – | 3.16 | 2.01 | 5.03 | 4.49 | – | –
CCC1(N=[N+]=[N-])C(=O)Nc2cc(C)ccc2C1=O (stereo not drawn) | > 100 | > 100 | > 100 | 51.2 | > 100 | > 100 | > 100 | > 100 | > 100 | > 100 | > 100 | – | –
CC(=O)c1ccc2c(c1)oc(=O)n2CCN1CCCCC1 | > 100 | > 100 | > 100 | > 100 | > 100 | – | > 100 | > 100 | > 100 | > 100 | > 100 | > 100 | > 100
O=C(c1ccncc1)n1nc(-c2ccccc2)c(N=Nc2ccc([N+](=O)[O-])cc2)c1-c1ccccc1 | > 100 | > 100 | > 100 | – | > 100 | > 100 | > 100 | > 100 | > 100 | > 100 | > 100 | – | –
